Data as given in patent publication US20210330611A1, “THERAPY FOR NEUROLOGICAL DISEASES/DISORDERS” (priority 2020, published 2021).
Counter-ions that a name gives are not always drawn. Like-named read-outs stand apart in the source and are kept apart here.

Key:
[1] = test system: fibrin-induced microglia activation; assay: Image-based assay of fibrin-induced microglia activation (HTS and dose response); assay type: cell-based, rat; conditions: primary microglia HTS, fibrin stimulation; for inhibition at 10 µM: Rattus norvegicus, Microglia, read-out: Fibrin % inhibition
[2] = test system: LPS-induced microglia activation; assay: Image-based assay of LPS-induced microglia activation (HTS and dose response); assay type: cell-based, rat; conditions: for inhibition at 10 µM: Rattus norvegicus, Microglia, read-out: LPS % inhibition
[3] = test system: fibrin- and LPS-induced microglia activation; assay: cells; assay type: cell-based, rat
[4] = test system: primary rat microglia
[5] = test system: primary rat microglia; assay: Cell toxicity (dead cells, size <150 μm2) in coated fibrin (cFib) assay; conditions: primary microglia HTS;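 also: share of dead cells sized under 150 µm2 at 10 µM in fibrin-stimulated microglia HTS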
[6] = cell size >800 μm2 as marker of activation
[7] = classification by fibrin and LPS inhibition in HTS
[8] = fibrin stimulation, cell size <150 μm2 as marker of toxicity

Structure (SMILES) | inhibition at 10 µM ([1]; compounds at 10 μM) [%] | inhibition at 10 µM ([2]; primary microglia HTS, LPS stimulation, compounds at 10 μM) [%] | Quadrant (FIG. 5b) ([3]; quadrant by fibrin and LPS inhibition, HTS at 10 μM) | LPS % cell toxicity ([4]; rat) [%] | Fibrin % cell toxicity ([5]; fibrin assay, dead cells (size <150 μm2)) [%] | inhibition at 10 µM [1, 6] [%] | inhibition at 10 µM ([2]; 48 h) [%] | Quadrant (FIG. 5b) [3, 7] | Fibrin % cell toxicity [5, 8] [%] | Fibrin % inhibition [1, 6] [%] | LPS % inhibition [2] [%] | LPS % cell toxicity [4] [%] | inhibition at 10 µM ([2]; 48 h, primary microglia HTS, LPS stimulation, cell size >800 μm2 as marker of activation) [%]
O=C(N/N=C/c1ccc([N+](=O)[O-])o1)c1ccc(O)cc1 [Nifuroxazide] | 112 | 120 | Q2 | 14 | 6 | – | – | – | – | – | – | – | –
CCC1(C)OC(=O)N(C)C1=O (stereo not drawn) [Paramethadione] | – | – | – | 0 | – | -15 | 3 | Q4 | 0 | – | – | – | –
C#CCN(C)Cc1ccccc1 [Pargyline] | – | – | – | 0 | – | -25 | 11 | Q4 | 1 | – | – | – | –
NC[C@@H]1O[C@H](O[C@H]2[C@@H](O)[C@H](O[C@@H]3[C@@H](O)[C@H](N)C[C@H](N)[C@H]3O[C@H]3O[C@H](CO)[C@@H](O)[C@H](O)[C@H]3N)O[C@@H]2CO)[C@H](N)[C@@H](O)[C@@H]1O [Paromomycin Sulfate] | – | – | – | 0 | – | 9 | 14 | Q4 | 1 | – | – | – | –
CCC(=O)c1ccc(O)cc1 [Paroxypropione] | – | – | – | 0 | – | -11 | 17 | Q4 | 1 | – | – | – | –
NNC(=O)c1ccncc1.Nc1ccc(C(=O)O)c(O)c1 [Pasiniazid] | – | – | – | – | – | – | – | Q4 | 1 | −61 | 17 | 0 | –
C[C@H]1COc2c(C3(N)CC3)c(F)cc3c(=O)c(C(=O)O)cn1c23 [Pazufloxacin Mesylate, Pazufloxacin] | – | – | – | – | – | – | – | Q4 | 1 | −10 | 11 | 0 | –
CN1C(C)(C)CCCC1(C)C [Pempidine Tartrate] | – | – | – | 0 | – | -19 | 13 | Q4 | 1 | – | – | – | –
Nc1nc2c(ncn2CCC(CO)CO)c(=O)[nH]1 [Penciclovir] | – | – | – | 0 | – | -44 | 4 | Q4 | 1 | – | – | – | –
OC1(c2ccc(Cl)c(C(F)(F)F)c2)CCN(CCCC(c2ccc(F)cc2)c2ccc(F)cc2)CC1 [Penfluridol] | – | – | – | 0 | – | 3 | – | Q4 | 1 | – | – | – | 8
C1CCc2nnnn2CC1 [Pentetrazole, Pentylenetetrazol] | – | – | – | – | – | – | – | Q4 | 1 | −12 | 18 | 1 | –
CCCN1C[C@H](CSC)C[C@@H]2c3cccc4[nH]cc(c34)C[C@H]21 [Pergolide] | – | – | – | 0 | – | -18 | 16 | Q4 | 0 | – | – | – | –
CCC[C@H](N[C@@H](C)C(=O)N1[C@H](C(=O)O)C[C@@H]2CCCC[C@@H]21)C(=O)OCC [Perindopril] | – | – | – | 0 | – | -27 | 18 | Q4 | 0 | – | – | – | –
CC1(C)C(C=C(Cl)Cl)C1C(=O)OCc1cccc(Oc2ccccc2)c1 (stereo not drawn) [Permethrin] | – | – | – | 0 | – | -21 | 11 | Q4 | 0 | – | – | – | –
OCCN1CCN(CCCN2c3ccccc3Sc3ccc(Cl)cc32)CC1 [Perphenazine] | – | – | – | 1 | – | 23 | 23 | Q4 | 1 | – | – | – | –
CCOc1ccc(NC(C)=O)cc1 [Phenacetin] | – | – | – | 0 | – | -5 | 16 | Q4 | 1 | – | – | – | –
Nc1ccc(/N=N/c2ccccc2)c(N)n1 [Phenazopyridine] | – | – | – | 0 | – | 9 | 6 | Q4 | 0 | – | – | – | –
CC(Oc1ccccc1)C(=O)N[C@@H]1C(=O)N2[C@@H]1SC(C)(C)[C@@H]2C(=O)O (stereo partly drawn) [Phenethicillin Potassium] | – | – | – | 0 | – | -2 | 3 | Q4 | 0 | – | – | – | –
